Results on two molecules are retold here after US10705094B2, “TNF receptor signaling modulator assay” (UCB Biopharma SRL, priority 2015, dated 2020).

The target in assay [1] is T1, TNFα (Homo sapiens, UniProt P01375). Nature of the assay: Surface plasmon resonance kinetics of compound binding to immobilised TNFα (Biacore T100/T200). The method, then:
Surface plasmon resonance was used to measure the association rate, the dissociation rate and the affinity of the compounds of formulae (1) and (2) for TNFα (FIGS. 13A and B). For the purpose of this study a Biacore T100/T200 was used.
TNFα was immobilised at pH5 to a level of 5-8 KRU onto a CMS sensor in HBS-P buffer (10 mM HEPES pH 7.4, 0.15 M NaCl, 0.005% Surfactant P20, BIAcore, GE Healthcare). The TNFα was then equilibrated in HBS-P with 5% DMSO for at least 5 hours. The samples were diluted from 10 mM stocks into DMSO matched buffer and left to solubilise for at least 5 hours. The flow rate was 30 μL/min.
This assay was performed by adding 4 or 5 concentrations of compound starting from a highest concentration of 25 μM for compound of formula (1) and 1 μM for compound of formula (2) and then serially diluting this sample. Background subtraction binding curves were analysed using the BIAevaluation software following standard procedures. Binding, affinity and kinetic parameters were determined using Biacore software. The kinetic data were fitted using the levenberg marquardt algorithm.
For orientation: Surface plasmon resonance follows binding to a sensor surface in real time, without labels.

The target in assay [2] is T1, TNFα. Nature of the assay: Fluorescence polarization assay, competition with the compound of formula (4) for TNFα. Conditions: TNFα 50 nM, compound of formula (4) 10 nM, 5% DMSO; read-out: IC50 (inhibition of binding of the compound of formula (4) to TNFα). On the procedure:
The final concentrations of TNFα and the compound of formula (4) were 50 nM and 10 nM respectively in a total assay volume of 25 μl. Plates were read on an Analyst HT reader. An IC50 was calculated using xlfit (4 parameter logistic model) in Activity Base.
C87 was preincubated with TNFα for 1 hour prior to assay against the fluorescent compound (probe). Competition with the fluorescent compound either directly (binding at the same site) or indirectly (disrupting TNF) is detected by a reduction in FP.
(In general: In fluorescence polarisation assays a small probe gives low polarisation when free and higher when bound to something large.)

In assay [3] the target is T1, TNFα. Nature of the assay: L929 murine fibrosarcoma cell-killing (neutralisation) assay. The format is cell-based, mouse. More on the design: host or cells: added to L929 murine fibrosarcoma cells (ECACC, 85011425). To be noted: L929 cells; read-out: IC50 (inhibition of cell killing activity of human TNFα). On the procedure: The L929 neutralisation assays were carried out using the protocol disclosed in Baarsch M J J et al (Immunol Methods 1991; 140: 15-22) and Galloway C J et al J (Immunol Methods 1991; 140: 37-43).
Briefly, L929 cells (ECACC, 85011425) were cultured in culture medium consisting of RPMI 1640 (Gibco) containing 10% FCS (PAA), 2 mM glutamine (Gibco), 50 U/ml penicillin (Gibco) and 50 μg/ml streptomycin (Gibco). When they were subcultured, the cells were washed three times with 10 mL Dulbecco's phosphate-buffered saline without calcium and magnesium (Gibco) and 3 ml of trypsin-EDTA (Gibco) was then added for 2 minutes to remove the cells from the flask. Culture medium was added to neutralise the trypsin and the cells pipetted up and down to remove any clumps.
The L929 cells were split 1/2 or 1/3 the day before use and cultured for a further 24 hours. The flasks were then trypsinised as above and 2×10^4 cells in 100 μl were added per well of a 96 well flat-bottomed plate (Becton Dickinson). The plates were cultured for 24 hours before the assay was set up.
Serial dilutions were made from DMSO stocks of the compounds.
The assay medium was the same as culture medium but also contained 1 μg/ml actinomycin D (Sigma). The medium was flicked off the plates and the assay samples plus TNFα, standards and controls were added in 100 μl volumes in duplicate. Plates were incubated for a further 16 hours and then 10 μl per well of a 5 mg/ml methylthiazoletetrazolium (MTT; Sigma) solution in culture medium was added for a further 4 hours. The reaction was stopped by the addition of 100 μl of solubilisation buffer containing 20% sodium dodecyl sulphate (SDS, BDH) dissolved in 50% dimethyl formamide (DMF; BDH) and 50% deionised water.
After overnight incubation at 37° C. to allow the dye to dissolve, the plates were read on a Multiskan EX plate reader (Labsystem) at 570 nm with subtraction at 630 nm. Data were analysed using the Genesis software package.

Assay [4] deals with T2, TNFα binding to the TNF receptor (TNFR-ECD) (Homo sapiens, UniProt P01375).
T2 construct: purchased R&D Systems
Nature of the assay: Meso Scale Discovery (MSD) assay of TNFα binding to plate-coated TNFR-ECD. Conditions: single point assay, 100 μM compound, 5% final v/v DMSO. On the procedure: 384 well uncoated plates (standard binding) Meso Scale Discovery plates (MSD) were coated overnight with the extracellular domain of TNFR (TNFR-ECD) (10 μl, 1 ug/mL in PBS). To ensure even distribution plates were centrifuged at 1000 rpm for 2 minutes. The plates were then sealed and stored at +4° C. overnight.
The wells of the plates were then washed three times in 50 μl phosphate buffered saline pH 6.5 (PB) with 0.05% Tween 20 (wash buffer), and then blocked with 50 μl 2% BSA. The plates were then incubated at room temperature on a shaker (600 rpm) for 2 hours. After this incubation plates were washed (3×50 μl wash buffer per well).
During the blocking incubation, compounds of formulae (1) and (2) were pre-incubated with TNF (R&D Systems) prior to addition to the pre-blocked and washed MSD plates. For a single point assay as shown in FIG. 3A the compounds were assayed at a final concentration of 100 μM (5% final v/v DMSO).
Pre-diluted compounds of formulae (1) and (2) were added at a ratio of 1:1 to 4 ng/mL TNF (final concentration 2 ng/ml), and then incubated at room temperature on a shaker 600 rpm for 1 hour.
10 μl of pre-incubated mixtures of compound of formulae (1) or (2) with TNFα were added to the prepared MSD plate and incubated at room temperature on a shaker for 1 hour.
The plates were then washed with wash buffer (3×50 μl per well). Sulfo-tagged anti-TNF polyclonal antibody was then added to each well and the plates incubated for a further 1.5 hours at room temperature on a shaker.
The plates were then washed (3×50 μl wash buffer per well), followed by the addition of 50 μl MSD Read buffer T plus surfactant (diluted 1 in 2 in H2O) and read on a SECTOR Imager 6000.
For single point assays percentage inhibition was calculated using a control sample without compound.
For EC50s determination results were calculated by standard means using a 4 parameter logistic model (sigmoidal dose response model).

Structures are written as SMILES.

As a reminder, the Kd is the constant that tells how readily two partners part at equilibrium. One may read the kon as the rate constant with which the complex forms. Lower therefore signals slow association. In general, koff refers to the rate constant with which the complex falls apart. The term IC50 denotes the point on the concentration scale where inhibition reaches its midpoint.

T1 sequence (P01375 77-233 limits assumed): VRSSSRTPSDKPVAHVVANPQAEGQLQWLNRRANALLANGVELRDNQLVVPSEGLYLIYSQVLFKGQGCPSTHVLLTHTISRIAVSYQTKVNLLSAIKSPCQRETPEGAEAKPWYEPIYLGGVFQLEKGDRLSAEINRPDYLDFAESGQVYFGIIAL
T2 sequence (P01375 77-233 limits assumed): as above

For the molecule `O=C1CCCN1c1cccc(OCc2nc3ccc(-c4ccc(=O)[nH]c4)cc3n2Cc2ccccc2OC(F)F)c1` [Compound (3), 5-(1-[2-(Difluoromethoxy)benzyl]-2-{[3-(2-oxo-pyrrolidin-1-yl)phenoxy]methyl}-1H-benzimidazol-6-yl)-pyridin-2(1H)-one], at TNFα [1] (calculated from koff/kon, read-out: dissociation constant (KD)), the Kd was 7 nM. Besides, the kon at TNFα [1] (immobilised TNFα, HBS-P with 5% DMSO) worked out at 5470 M⁻¹ s⁻¹. In addition, the koff at TNFα [1] (immobilised TNFα, HBS-P with 5% DMSO, read-out: dissociation rate constant (koff)) was 4.07e-05 s⁻¹. The IC50 at TNFα [2] was found to be 20 nM; on TNFα [3] it was 21 nM.
As for `Cc1cc2occ(CN(C)CCN(C)Cc3cn(-c4cccc(C(F)(F)F)c4)c4ccccc34)c(=O)c2cc1C` [SPD-304, reference compound], in assay [4], the “% inhibition of TNFα binding to the TNF receptor” value is reported as “+80%”.
